{"source": "paper PMC3002971", "about": "“A Universal Approach to Eliminate Antigenic Properties of Alpha-Gliadin Peptides in Celiac Disease” (PLoS ONE, 2010)", "key": {"DQ8-Glia-α1 T cell clone": {"system": "DQ8-Glia-α1 T cell clone", "test": "T cell proliferation assay, DQ8-Glia-α1 T cell clone", "type": "cell-based, human", "parameters": "key: ± = 100 times reduced T cell stimulation compared to the ‘canonical’ epitope; - = 1000 times reduced T cell stimulation compared to the ‘canonical’ epitope", "settings": "3H-thymidine proliferation, triplicate; deamidated peptides, antigen 1–10 µg/ml; stimulation compared to canonical epitope", "method": "(§1) Gluten specific T cell clones were generated from small intestinal biopsies of celiac disease patients as described before, [11], [12]. All patients signed an informed consent form which was approved by the hospital ethics committee. Proliferation assays were performed in triplicate in 150 µl Iscove's Modified Dulbecco's Medium (Bio Whittaker, Verviers, Belgium) with 10% pooled normal human serum in 96 well flat-bottom plates using 2×10^4 gluten specific T cells stimulated with […] irradiated HLA-DQ2-matched allogeneic peripheral blood mononuclear cells (3000 rad) in the presence or absence of antigen (1–10 µg/ml), [11], [12]. After 2 days ^3H-thymidine (0.5 µCi/well) was added to the cultures, and 18–20 hours thereafter the cells were harvested. ^3H-thymidine incorporation in the T cell DNA was determined with a liquid scintillation counter (1205 Betaplate Liquid Scintillation Counter, LKB Instruments, Gaithersburg, MD). A binding assay was performed as described previously."}, "T cell": {"system": "T cell", "settings": "cited from earlier work", "description": "Many gluten peptides with T cell stimulatory properties have now been identified. Such peptides have been found in wheat α-, γ-, and ω-gliadins as well as in low molecular weight (LMW) and high molecular weight (HMW) glutenins [8]–[14]. […] An α-gliadin derived 33-mer peptide (amino acid sequence […]) was identified that encodes six partially o ..."}, "[1]": {"settings": "cited from earlier work", "description": "In addition to the canonical epitope motifs, a large series of sequence variants with one or two amino acid substitutions were detected ( Tables 2 , 3 , 4 , 5 ). The large majority of the Gli-B2 gliadins contained sequence variants of the DQ2-Glia-α1, DQ2-Glia-α2, and DQ2-Glia-α3 epitopes with two amino acid substitutions. Furthermore, Gli-A2 transcripts harbored a proline to serine substitution at position 8 (p8) of the DQ2-Glia-α2 epitope and a sequence variant (QGSFRP(S/F)QQN, amino acid substitution in bold) of the DQ8-Glia-α1 epitopes. Importantly, the 33-mer peptide ([…] ..."}, "[2]": {"system": "DQ2-Glia-α1 specific T cell clones", "test": "T cell proliferation assay, DQ2-Glia-α1 specific T cell clone", "type": "cell-based, human", "parameters": "key: ± = 100 times reduced T cell stimulation compared to the ‘canonical’ epitope; - = 1000 times reduced T cell stimulation compared to the ‘canonical’ epitope", "settings": "3H-thymidine proliferation, triplicate; deamidated 14- to 17-mer peptides, antigen 1–10 µg/ml; stimulation compared to canonical epitope", "method": "as §1"}, "[3]": {"system": "DQ2-Glia-α2 specific T cell clones", "test": "T cell proliferation assay, DQ2-Glia-α2 specific T cell clone", "type": "cell-based, human", "parameters": "key: ± = 100 times reduced T cell stimulation compared to the ‘canonical’ epitope; - = 1000 times reduced T cell stimulation compared to the ‘canonical’ epitope", "settings": "3H-thymidine proliferation, triplicate; deamidated 14- to 17-mer peptides, antigen 1–10 µg/ml; stimulation compared to canonical epitope", "method": "as §1"}}, "data": [{"substance": "LGEGFFQPSQENP [Peptide 20]", "values": [{"measurement": "DQ8-Glia-α1 T cell clone", "setting": "DQ8-Glia-α1 T cell clone", "result": "-"}]}, {"substance": "LQLQPFPQPQLPYPQPQLPYPQPQLPYPQPQPF [33-mer peptide]", "values": [{"measurement": "T cell stimulatory properties", "setting": "T cell", "result": "very potent T cell stimulatory properties"}, {"measurement": "resistance to degradation in the gastrointestinal tract", "setting": "[1]", "result": "highly resistant to degradation"}]}, {"substance": "QPQPFP-PELPYPQTQP [Peptide 15]", "values": [{"measurement": "Glia-α1 T cell clone", "setting": "[2]", "result": "-"}, {"measurement": "Glia-α2 T cell clone", "setting": "[3]", "result": "-"}]}]}
